Results: US20240059673A1, “SUBSTITUTED INDOLE COMPOUNDS” (Gilead Sciences, Inc., priority 2020, published 2024)

Key:
TLR9 = target: T1, TLR9 (Homo sapiens, UniProt Q9NR96); assay: Human PBMC cell-based assay, TLR9 agonist stimulation; details: human PBMCs; TLR9 agonist ODN-2216 3 μM; 6 hours; cytokines (IL-6 and IFNα) in supernatant; Table 2; read-out: TLR-9 EC50
T1 construct: lymphocytes, monocytes and dendritic cells that express TLR7, TLR8 and TLR9; endogenous in cells; host or cells: cryopreserved human PBMCs from healthy donors
T1 sequence (Q9NR96 26-1032): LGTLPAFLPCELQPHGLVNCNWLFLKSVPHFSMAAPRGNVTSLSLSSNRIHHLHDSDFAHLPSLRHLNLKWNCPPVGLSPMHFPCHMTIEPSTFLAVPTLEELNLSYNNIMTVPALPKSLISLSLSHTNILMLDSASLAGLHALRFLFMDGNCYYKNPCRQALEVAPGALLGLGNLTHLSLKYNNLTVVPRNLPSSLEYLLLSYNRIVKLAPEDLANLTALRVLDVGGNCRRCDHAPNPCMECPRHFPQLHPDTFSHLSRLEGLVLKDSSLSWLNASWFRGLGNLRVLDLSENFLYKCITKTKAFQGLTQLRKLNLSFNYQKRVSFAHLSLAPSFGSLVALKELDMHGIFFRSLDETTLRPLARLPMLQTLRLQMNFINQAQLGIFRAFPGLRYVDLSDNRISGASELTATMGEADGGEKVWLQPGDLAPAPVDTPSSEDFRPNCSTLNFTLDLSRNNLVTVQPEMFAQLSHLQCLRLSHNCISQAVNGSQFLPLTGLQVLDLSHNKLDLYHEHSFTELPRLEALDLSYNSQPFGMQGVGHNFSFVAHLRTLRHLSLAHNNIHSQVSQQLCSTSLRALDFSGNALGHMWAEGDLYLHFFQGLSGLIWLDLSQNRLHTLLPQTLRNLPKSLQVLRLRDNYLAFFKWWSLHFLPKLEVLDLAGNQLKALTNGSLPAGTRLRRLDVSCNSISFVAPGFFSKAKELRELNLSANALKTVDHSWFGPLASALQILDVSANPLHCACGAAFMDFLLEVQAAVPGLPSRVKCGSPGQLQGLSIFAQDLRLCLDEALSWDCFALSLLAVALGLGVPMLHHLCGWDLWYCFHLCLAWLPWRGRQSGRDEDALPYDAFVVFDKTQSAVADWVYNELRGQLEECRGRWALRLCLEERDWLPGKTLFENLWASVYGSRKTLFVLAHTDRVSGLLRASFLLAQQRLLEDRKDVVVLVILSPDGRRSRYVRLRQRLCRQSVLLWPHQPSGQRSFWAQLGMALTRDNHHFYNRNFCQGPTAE
Description: (§1) Human Peripheral Blood Mononuclear Cell (PBMC) Cell-Based Assay
(§2) Human peripheral blood mononuclear cells (PBMCs) consist of lymphocytes, monocytes and dendritic cells that express TLR7, TLR8 and TLR9. These cells respond to TLR7, TLR8 and TLR9 ligand stimulation and produce cytokines and chemokines in vitro and in vivo. Human PBMCs are therefore suitable to be used in a cell-based assay to assess the in vitro potency of a TLR 7, 8, and/or 9 antagonist. The result is expected to be more translatable to the pharmacodynamics response in vivo than cell line-based assays.
(§3) Cryopreserved human PBMCs from healthy donors were thawed and resuspended in RPMI-1640 media with L-glutamine (Corning) supplemented with 10% Fetal Bovine Serum (Hyclone) and 1× Penicillin-Streptomycin (Corning). After counting, the cell density was adjusted to 2 million cells/ml and incubated for 1 hour at 37° C., 5% CO2 for recovery. Following the recovery, the cells were plated by adding 50p per well (100,000 cells) to 384-well cell culture plates (Greiner) containing 250 nl of test antagonists in 100% DMSO per well, in a 10 points dose response in quadruplicates. PBMCs were incubated in the presence of test antagonists for one hour at 37° C., 5% CO2 before being stimulated with a TLR7 or TLR9 agonist. GS-986 (Gilead Sciences) was used as the TLR7 agonist at a final concentration of 400 nM. ODN-2216 (InvivoGen) was used as the TLR9 agonist at a final concentration of 3μM. PBMCs were incubated in the presence of the test antagonist and the TLR7 (or TLR9) agonist for an additional 6 hours at 37° C., 5% CO2. At the end of the incubation, the cell culture plates were centrifuged at 500 g for 5 min, and the cell culture supernatant was collected. The level of cytokines (IL-6 and IFNα) in the supernatant was measured by electrochemiluminescence immunoassays (Mesoscale Discovery) following manufacturer's recommended protocols. The level of cytokine measured was plotted against the test antagonist concentration and fitted to a sigmoidal function to determine the EC50, which are shown below in Table 2.

TLR7 = target: T2, TLR7 (Homo sapiens, UniProt Q9NYK1); assay: Human PBMC cell-based assay, TLR7 agonist stimulation; details: human PBMCs; TLR7 agonist GS-986 400 nM; 6 hours; cytokines (IL-6 and IFNα) in supernatant; Table 2; read-out: TLR-7 EC50
T2 construct: lymphocytes, monocytes and dendritic cells that express TLR7, TLR8 and TLR9; endogenous in cells; host or cells: cryopreserved human PBMCs from healthy donors
T2 sequence (Q9NYK1 27-1049): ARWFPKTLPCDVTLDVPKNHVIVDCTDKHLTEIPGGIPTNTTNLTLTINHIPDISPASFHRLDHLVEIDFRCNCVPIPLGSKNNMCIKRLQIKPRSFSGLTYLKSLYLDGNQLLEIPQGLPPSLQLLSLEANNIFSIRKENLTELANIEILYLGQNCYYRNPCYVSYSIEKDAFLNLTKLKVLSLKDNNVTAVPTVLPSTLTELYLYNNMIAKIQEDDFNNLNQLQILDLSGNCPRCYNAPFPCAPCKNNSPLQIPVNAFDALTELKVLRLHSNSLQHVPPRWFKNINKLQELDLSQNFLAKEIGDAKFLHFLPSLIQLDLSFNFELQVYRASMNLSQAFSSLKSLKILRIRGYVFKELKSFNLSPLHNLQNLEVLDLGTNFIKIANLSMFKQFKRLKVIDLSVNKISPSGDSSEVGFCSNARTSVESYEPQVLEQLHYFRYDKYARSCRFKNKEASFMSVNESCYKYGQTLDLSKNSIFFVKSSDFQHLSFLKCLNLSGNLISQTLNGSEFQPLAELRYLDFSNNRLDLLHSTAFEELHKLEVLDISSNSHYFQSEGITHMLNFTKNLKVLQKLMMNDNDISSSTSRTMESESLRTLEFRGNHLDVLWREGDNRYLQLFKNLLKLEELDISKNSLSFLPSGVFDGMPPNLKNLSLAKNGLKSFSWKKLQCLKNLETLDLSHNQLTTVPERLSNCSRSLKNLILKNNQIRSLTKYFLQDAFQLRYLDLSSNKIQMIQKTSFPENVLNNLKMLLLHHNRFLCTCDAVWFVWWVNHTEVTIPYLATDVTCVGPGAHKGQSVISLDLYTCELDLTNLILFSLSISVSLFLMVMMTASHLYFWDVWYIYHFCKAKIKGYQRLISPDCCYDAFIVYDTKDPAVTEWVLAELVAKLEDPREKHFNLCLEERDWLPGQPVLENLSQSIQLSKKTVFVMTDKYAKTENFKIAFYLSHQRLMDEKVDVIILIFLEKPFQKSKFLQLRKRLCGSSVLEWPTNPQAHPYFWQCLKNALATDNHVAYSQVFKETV
Description: as §1, §2, §3

SMILES | EC50 (TLR9) [nM] | EC50 (TLR7) [nM]
Cc1c(-c2cnc(N3CCNCC3)nc2)[nH]c2cc(-c3cc(C)c4ncnn4c3)ccc12 [Example 3] | 169 | 2.7
Cc1cc(-c2ccc3c(C)c(C4=CCNCC4)[nH]c3c2)cc(C)n1 [Example 11, 6-(2,6-dimethylpyridin-4-yl)-3-methyl-2-(1,2,3,6-tetrahydropyridin-4-yl)-1H-indole] | 70.1 | 686
CCN1CCC(c2[nH]c3cc(-c4cc(C)nc(C)c4)ccc3c2C)CC1 [Example 13, 6-(2,6-dimethylpyridin-4-yl)-2-(1-ethylpiperidin-4-yl)-3-methyl-1H-indole] | 174 | > 1000
CCc1c(-c2cnc(N3CCNCC3)nc2)[nH]c2cc(-c3cc(C)nc(C)c3)ccc12 [Example 14] | 37.1 | 6.2
Cc1cc(-c2ccc3c(C)c(-c4ccc(S(=O)(=O)N5CCNCC5)cc4)[nH]c3c2)cc(C)n1 [Example 15] | 202 | 509
Cc1cc(-c2ccc3c(C)c(-c4cnc5c(c4)CNCC5)[nH]c3c2)cc(C)n1 [Example 16, 3-[6-(2,6-dimethyl-4-pyridyl)-3-methyl-1H-indol-2-yl]-5,6,7,8-tetrahydro-1,6-naphthyridine] | 27.9 | 67.9
Cc1cc(-c2ccc3c(C)c(-c4cccc(C(=O)N[C@@H]5CCNC5)c4)[nH]c3c2)cc(C)n1 [Example 17, (R)-3-(6-(2,6-dimethylpyridin-4-yl)-3-methyl-1H-indol-2-yl)-N-(pyrrolidin-3-yl)benzamide] | 422 | 193
Cc1cc(-c2ccc3c(C)c(-c4cccc(C(=O)N[C@H]5CCNC5)c4)[nH]c3c2)cc(C)n1 [Example 18] | 97.8 | 336
Cc1cc(-c2ccc3c(C)c(-c4ccc(C(=O)N[C@@H]5CCNC5)cc4)[nH]c3c2)cc(C)n1 [Example 19] | 430 | 328
Cc1cc(-c2ccc3c(C)c(-c4ccc(C(=O)N[C@H]5CCNC5)cc4)[nH]c3c2)cc(C)n1 [Example 20] | 244 | 291
Cc1cc(-c2ccc3c(C)c(-c4ccc(C(=O)N5CCNCC5)cc4)[nH]c3c2)cc(C)n1 [Example 21] | 83.6 | 127
Cc1cc(-c2ccc3c(C)c(-c4cccc(C(=O)N5CCNCC5)c4)[nH]c3c2)cc(C)n1 [Example 22, (3-(6-(2,6-dimethylpyridin-4-yl)-3-methyl-1H-indol-2-yl)phenyl)(piperazin-1-yl)methanone] | 61.3 | 66.6
Cc1cc(-c2ccc3c(C)c(C4CCN(C(=O)CN(C)C)CC4)[nH]c3c2)cc(C)n1 [Example 24, 2-(dimethylamino)-1-(4-(6-(2,6-dimethylpyridin-4-yl)-3-methyl-1H-indol-2-yl)piperidin-1-yl)ethan-1-one] | 131 | > 1000
Cc1cc(-c2ccc3c(C)c(C4CCN(C(=O)c5cccnc5)CC4)[nH]c3c2)cc(C)n1 [Example 25] | 2830 | > 1000
Cc1cc(-c2ccc3c(C)c(C4CCN(C(=O)CC5CCNCC5)CC4)[nH]c3c2)cc(C)n1 [Example 26] | 1300 | > 1000
Cc1cc(-c2ccc3c(C)c(C4CCN(C(=O)c5cncn5C)CC4)[nH]c3c2)cc(C)n1 [Example 27] | 3390 | > 1000
Cc1cc(-c2cnc3c(C)c(-c4ccc(N5CCNCC5)cc4)[nH]c3c2)cc(C)n1 [Example 28, 6-(2,6-dimethylpyridin-4-yl)-3-methyl-2-(4-(piperazin-1-yl)phenyl)-1H-pyrrolo[3,2-b]pyridine] | 134 | 28.3

Continued, values first:

EC50 (TLR9) [nM] | EC50 (TLR7) [nM] | SMILES
69.3 | 4.4 | Cc1cc(-c2ccc3c(C)c(-c4ccc(N5CCNCC5)nc4)[nH]c3c2)ccn1 [Example 5]
2070 | 442 | Cc1noc(C)c1-c1ccc2c(C)c(-c3ccc(N4CCNCC4)nc3)[nH]c2c1 [Example 6]
367 | 144 | Cc1c(-c2ccc(N3CCNCC3)nc2)[nH]c2cc(-c3ccnc4ccccc34)ccc12 [Example 8]
467 | 463 | Cc1c(-c2ccc(N3CCNCC3)nc2)[nH]c2cc(-c3cn[nH]c3)ccc12 [Example 9]
518 | 58.8 | COc1ccc(-c2ccc3c(C)c(-c4ccc(N5CCNCC5)nc4)[nH]c3c2)cc1OC [Example 10]
47.8 | 6.2 | CCc1c(-c2ccc(N3CCNCC3)nc2)[nH]c2cc(-c3cc(C)nc(C)c3)ccc12 [Example 12]
77.4 | 14.7 | Cc1cc(-c2cnc3c(C)c(-c4ccc(N5CCNCC5)nc4)[nH]c3c2)cc(C)n1 [Example 29]
37.8 | 10.2 | Cc1cc(-c2ccc3c(C)c(-c4ccc(N5CCN(CCO)CC5)nc4)[nH]c3c2)cc(C)n1 [Example 30, 2-(4-(5-(6-(2,6-dimethylpyridin-4-yl)-3-methyl-1H-indol-2-yl)pyridin-2-yl)piperazin-1-yl)ethan-1-ol]
